Laboratory results reported in US7087631B2, “Aryltetrazole compounds, and compositions thereof” (Inotek Pharmaceuticals Corporation, priority 2002, dated 2006).

Molecular target: xanthine oxidase (Homo sapiens, UniProt P47989)
Assay: Xanthine oxidase inhibitory activity, 96 well plate, kinetic reading at 295 nm
Assay type: biochemical

Chain of xanthine oxidase (P47989 whole entry, species assumed): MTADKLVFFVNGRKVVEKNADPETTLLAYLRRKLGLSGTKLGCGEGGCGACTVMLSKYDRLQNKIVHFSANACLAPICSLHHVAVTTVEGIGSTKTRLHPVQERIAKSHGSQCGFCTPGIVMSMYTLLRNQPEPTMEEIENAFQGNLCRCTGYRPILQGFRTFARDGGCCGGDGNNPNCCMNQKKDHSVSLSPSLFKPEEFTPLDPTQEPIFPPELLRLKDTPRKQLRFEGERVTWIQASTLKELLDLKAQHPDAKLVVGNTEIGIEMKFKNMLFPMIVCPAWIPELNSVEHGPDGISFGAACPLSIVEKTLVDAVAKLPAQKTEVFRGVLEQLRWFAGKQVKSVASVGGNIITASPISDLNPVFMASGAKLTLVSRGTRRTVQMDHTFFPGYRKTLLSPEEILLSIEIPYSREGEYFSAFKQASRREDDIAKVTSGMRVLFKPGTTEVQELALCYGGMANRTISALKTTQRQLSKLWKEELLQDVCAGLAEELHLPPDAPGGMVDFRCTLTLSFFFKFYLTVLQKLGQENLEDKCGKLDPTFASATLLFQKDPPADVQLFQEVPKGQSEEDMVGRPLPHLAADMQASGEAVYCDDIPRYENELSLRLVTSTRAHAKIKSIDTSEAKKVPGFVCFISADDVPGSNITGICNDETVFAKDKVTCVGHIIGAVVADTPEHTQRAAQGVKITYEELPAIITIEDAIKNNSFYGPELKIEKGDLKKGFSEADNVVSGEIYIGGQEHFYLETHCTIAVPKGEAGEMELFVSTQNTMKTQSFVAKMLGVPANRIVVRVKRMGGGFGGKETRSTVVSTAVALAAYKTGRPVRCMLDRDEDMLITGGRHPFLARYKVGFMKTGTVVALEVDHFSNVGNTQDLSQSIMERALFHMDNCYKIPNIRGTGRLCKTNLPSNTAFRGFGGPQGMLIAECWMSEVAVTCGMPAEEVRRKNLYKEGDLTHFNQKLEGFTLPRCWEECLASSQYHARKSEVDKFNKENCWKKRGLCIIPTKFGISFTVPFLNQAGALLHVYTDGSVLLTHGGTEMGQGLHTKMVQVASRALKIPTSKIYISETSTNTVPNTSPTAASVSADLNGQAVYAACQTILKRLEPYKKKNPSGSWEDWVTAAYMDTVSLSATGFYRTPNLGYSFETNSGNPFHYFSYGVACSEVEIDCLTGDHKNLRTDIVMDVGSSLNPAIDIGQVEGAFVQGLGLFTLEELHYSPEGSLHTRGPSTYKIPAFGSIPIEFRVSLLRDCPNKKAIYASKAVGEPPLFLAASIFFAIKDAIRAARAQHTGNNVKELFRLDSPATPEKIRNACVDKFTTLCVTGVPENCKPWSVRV

| PERCENT XANTHINE OXIDASE INHIBITION (compound concentration 1 μM) [%] | PERCENT XANTHINE OXIDASE INHIBITION (compound concentration 0.03 μM) [%] | PERCENT XANTHINE OXIDASE INHIBITION (compound concentration 0.1 μM) [%] | Compound | other results |
| --- | --- | --- | --- | --- |
| 86 | 20 | 45 | O=C(Nc1ccccc1F)c1ccc(-c2nnn[nH]2)cc1 [HY] |  |
| 98 |  | 95 | O=C(OCc1cccnc1)c1ccc(-c2nnn[nH]2)cc1 [HO] | PERCENT XANTHINE OXIDASE INHIBITION (compound concentration 0.05 μM): 46% |
| 87 | 22 | 38 | CCc1cccc(NC(=O)c2ccc(-c3nnn[nH]3)cc2)c1 [IE] |  |
| 95 |  | 73 | O=C(OCC(Cl)(Cl)Cl)c1ccc(-c2nnn[nH]2)cc1 [GV] | PERCENT XANTHINE OXIDASE INHIBITION (compound concentration 0.01 μM): 14% |
| 35 |  | 10 | c1ccc(COc2ccc(-c3nnn[nH]3)cc2)cc1 [IV] |  |
| 39 |  | 9 | O=C(OCCN1C(=O)CCC1=O)c1ccc(-c2nnn[nH]2)cc1 [GW] | PERCENT XANTHINE OXIDASE INHIBITION (compound concentration 0.01 μM): 5% |
| 79 | 19 | 30 | N#Cc1cc(-c2nnn[nH]2)ccc1C(=O)Nc1nccs1 [JI] |  |
| 64 | 36 | 33 | CCCCOc1ccc(NC(=O)c2ccc(-c3nnn[nH]3)cc2)cc1 [IQ] |  |
| 95 |  | 95 | CCCOC(=O)c1ccc(-c2nnn[nH]2)cc1 [HR] | PERCENT XANTHINE OXIDASE INHIBITION (compound concentration 0.05 μM): 34% |
| 93 | 27 | 58 | COc1ccc(NC(=O)c2ccc(-c3nnn[nH]3)cc2)cc1 [IJ] |  |
| 86 | 21 | 46 | COc1cccc(NC(=O)c2ccc(-c3nnn[nH]3)cc2)c1 [IL] |  |
| 89 | 32 | 62 | O=C(Nc1cccc(F)c1)c1ccc(-c2nnn[nH]2)cc1 [HW] |  |
| 0 |  |  | CN(C(=O)c1ccc(-c2nnn[nH]2)cc1)c1ccccc1 [IM] |  |
| 14 |  |  | COc1ccc2cc(-c3nnn[nH]3)ccc2c1 [JR] | PERCENT XANTHINE OXIDASE INHIBITION (compound concentration 10 μM): 56%; PERCENT XANTHINE OXIDASE INHIBITION (compound concentration 100 μM): 85% |
| 86 | 23 | 41 | N#Cc1cc(-c2nnn[nH]2)ccc1C(=O)Nc1cccnc1 [JH] |  |
| 94 |  | 53 | O=C(Oc1cccc(Br)c1)c1ccc(-c2nnn[nH]2)cc1 [GT] | PERCENT XANTHINE OXIDASE INHIBITION (compound concentration 0.01 μM): 8% |
| 25 |  |  | O=C(NCc1ccc2c(c1)OCO2)c1ccc(-c2nnn[nH]2)cc1 [HB] |  |
| 28 |  | 0 | COc1cc(-c2nnn[nH]2)ccc1OCC(C)C [JD] |  |
| 86 | 26 | 47 | O=C(Nc1ccc(Cl)cc1Cl)c1ccc(-c2nnn[nH]2)cc1 [IY] |  |
| 22 |  | 9 | c1ccc(CCCOc2ccc(-c3nnn[nH]3)cc2)cc1 [IW] |  |
| 0 |  |  | O=C(Nc1ccccc1)c1cccc(-c2nnn[nH]2)c1 [IO] |  |
| 14 |  |  | c1cncc(-c2ccc(-c3nnn[nH]3)cc2)c1 [HI] | PERCENT XANTHINE OXIDASE INHIBITION (compound concentration 10 μM): 24%; PERCENT XANTHINE OXIDASE INHIBITION (compound concentration 100 μM): 70% |
| 76 |  | 11 | O=C(OC1CCC2CCCCC2C1)c1ccc(-c2nnn[nH]2)cc1 (stereo not shown) [GY] | PERCENT XANTHINE OXIDASE INHIBITION (compound concentration 0.01 μM): 19% |
| 78 |  | 35 | CCC#CCOC(=O)c1ccc(-c2nnn[nH]2)cc1 [GQ] | PERCENT XANTHINE OXIDASE INHIBITION (compound concentration 0.01 μM): 0% |
| 72 | 13 | 37 | O=C(O)Cc1cccc(NC(=O)c2ccc(-c3nnn[nH]3)cc2)c1 [ID] |  |
| 100 |  |  | O=C(OCc1ccccc1I)c1ccc(-c2nnn[nH]2)cc1 [GX] | PERCENT XANTHINE OXIDASE INHIBITION (compound concentration 0.01 μM, 0.01 µM): 19%; PERCENT XANTHINE OXIDASE INHIBITION (compound concentration 0.1 μM, 0.1 µM): 84% |
| 95 |  | 97 | O=C(OCCc1cccs1)c1ccc(-c2nnn[nH]2)cc1 [HQ] | PERCENT XANTHINE OXIDASE INHIBITION (compound concentration 0.05 μM): 53% |
| 94 |  | 69 | O=C(OCc1ccc(Br)cc1)c1ccc(-c2nnn[nH]2)cc1 [GU] | PERCENT XANTHINE OXIDASE INHIBITION (compound concentration 0.01 μM): 17% |
| 95 | 34 | 68 | O=C(Nc1ccc(Cl)c(Cl)c1)c1ccc(-c2nnn[nH]2)cc1 [JL] |  |

More lines, now with the values behind:

| Compound | PERCENT XANTHINE OXIDASE INHIBITION (compound concentration 1 μM) [%] | PERCENT XANTHINE OXIDASE INHIBITION (compound concentration 0.03 μM) [%] | PERCENT XANTHINE OXIDASE INHIBITION (compound concentration 0.1 μM) [%] | other results |
| --- | --- | --- | --- | --- |
| O=C(/C=C/c1ccccc1)Nc1nnn[nH]1 [Compound HN] | 10 |  |  | PERCENT XANTHINE OXIDASE INHIBITION (compound concentration 10 μM): 13%; PERCENT XANTHINE OXIDASE INHIBITION (compound concentration 100 μM): 42% |
| Brc1ccc(-c2nnn[nH]2)cc1 [FI] |  |  |  | PERCENT XANTHINE OXIDASE INHIBITION (compound concentration 10 μM): 21%; PERCENT XANTHINE OXIDASE INHIBITION (compound concentration 100 μM): 67% |
| O=C(NCc1cccnc1)c1ccc(-c2nnn[nH]2)cc1 [HC] | 25 |  |  |  |
| O=C(O)c1cccc(NC(=O)c2ccc(-c3nnn[nH]3)cc2)c1 [IB] | 94 | 38 | 64 |  |
| Fc1ccc(-c2nnn[nH]2)cc1 [FM] |  |  |  | PERCENT XANTHINE OXIDASE INHIBITION (compound concentration 10 μM): 19%; PERCENT XANTHINE OXIDASE INHIBITION (compound concentration 100 μM): 78% |
| O=C(OCc1ccccc1)c1ccc(-c2nnn[nH]2)cc1 [GA] | 78 |  |  | PERCENT XANTHINE OXIDASE INHIBITION (compound concentration 10 μM): 100%; PERCENT XANTHINE OXIDASE INHIBITION (compound concentration 100 μM): 100% |
| O=C(NC1CCCCC1)c1ccc(-c2nnn[nH]2)cc1 [HA] | 61 |  | 10 |  |
| CC(=O)Nc1ccc(-c2nn[nH]n2)cc1 [Compound FR] |  |  |  | PERCENT XANTHINE OXIDASE INHIBITION (compound concentration 100 μM): 40% |
| O=C(Oc1ccccc1)c1ccc(-c2nnn[nH]2)cc1 [GC] | 100 |  | 97 | PERCENT XANTHINE OXIDASE INHIBITION (compound concentration 0.05 μM): 52% |
| O=C(OCC1CC1)c1ccc(-c2nnn[nH]2)cc1 [GB] | 82 |  |  | PERCENT XANTHINE OXIDASE INHIBITION (compound concentration 10 μM): 97%; PERCENT XANTHINE OXIDASE INHIBITION (compound concentration 100 μM): 100% |
| O=C(OCC(F)(F)F)c1ccc(-c2nnn[nH]2)cc1 [GJ] | 99 |  | 59 | PERCENT XANTHINE OXIDASE INHIBITION (compound concentration 0.01 μM): 12% |
| CNC(=O)Nc1ccc(-c2nnn[nH]2)cc1 [FS] |  |  |  | PERCENT XANTHINE OXIDASE INHIBITION (compound concentration 100 μM): 10% |
| CCCCc1ccc(NC(=O)c2ccc(-c3nnn[nH]3)cc2)cc1 [IH] | 95 | 33 | 63 |  |
| COC(=O)c1ccc(-c2nnn[nH]2)cc1 [FW] | 39 |  |  | PERCENT XANTHINE OXIDASE INHIBITION (compound concentration 10 μM): 82%; PERCENT XANTHINE OXIDASE INHIBITION (compound concentration 100 μM): 100% |
| CC(C)COc1ccc(-c2nnn[nH]2)cc1Br [Compound JC] | 31 |  | 6 |  |
| O=C(Nc1ccccc1)Nc1ccc(-c2nnn[nH]2)cc1 [IU] | 42 | 3 | 9 |  |
| Clc1ccc(-c2nnn[nH]2)cc1 [FH] |  |  |  | PERCENT XANTHINE OXIDASE INHIBITION (compound concentration 10 μM): 27%; PERCENT XANTHINE OXIDASE INHIBITION (compound concentration 100 μM): 69% |

| Compound | PERCENT XANTHINE OXIDASE INHIBITION (compound concentration 1 μM) [%] | PERCENT XANTHINE OXIDASE INHIBITION (compound concentration 0.03 μM) [%] | PERCENT XANTHINE OXIDASE INHIBITION (compound concentration 0.1 μM) [%] | other results |
| --- | --- | --- | --- | --- |
| Fc1ccccc1-c1nnn[nH]1 [FP] |  |  |  | PERCENT XANTHINE OXIDASE INHIBITION (compound concentration 10 μM): 3%; PERCENT XANTHINE OXIDASE INHIBITION (compound concentration 100 μM): 21% |
| O=C(OCC12CC3CC(CC(C3)C1)C2)c1ccc(-c2nnn[nH]2)cc1 [GI] | 100 | 75 | 95 |  |
| c1ccc(-c2nnn[nH]2)cc1 [FF] |  |  |  | PERCENT XANTHINE OXIDASE INHIBITION (compound concentration 100 μM): 10% |
| O=C(OCc1ccc(Cl)cc1)c1ccc(-c2nnn[nH]2)cc1 [GE] | 100 |  | 100 | PERCENT XANTHINE OXIDASE INHIBITION (compound concentration 0.05 μM): 59% |
| CC(=O)c1cccc(NC(=O)c2ccc(-c3nnn[nH]3)cc2)c1 [Compound IA] | 90 | 31 | 54 |  |
| O=C(O)Cc1ccc(NC(=O)c2ccc(-c3nnn[nH]3)cc2)cc1 [II] | 90 | 20 | 45 |  |
| CC(C)COc1ccc(-c2nn[nH]n2)cc1 [Compound IR] | 88 | 28 | 47 |  |
| O=C(NCC1CCCCC1)c1ccc(-c2nnn[nH]2)cc1 [HS] | 55 | 8 | 16 |  |
| O=C(OC1CCCCC1)c1ccc(-c2nnn[nH]2)cc1 [GO] | 82 |  | 18 | PERCENT XANTHINE OXIDASE INHIBITION (compound concentration 0.01 μM): 6% |
| O=C(OCCN1CCCC1)c1ccc(-c2nnn[nH]2)cc1 [GL] | 4 |  |  |  |
| O=C(OCc1cccc(Cl)c1)c1ccc(-c2nnn[nH]2)cc1 [GD] | 79 |  |  | PERCENT XANTHINE OXIDASE INHIBITION (compound concentration 10 μM): 82%; PERCENT XANTHINE OXIDASE INHIBITION (compound concentration 100 μM): 100% |
| Clc1cccc(-c2nnn[nH]2)c1 [FG] |  |  |  | PERCENT XANTHINE OXIDASE INHIBITION (compound concentration 100 μM): 34% |
| COc1ccccc1NC(=O)c1ccc(-c2nnn[nH]2)cc1 [IK] | 55 | 9 | 17 |  |
| CCOc1ccc(-c2nnn[nH]2)cc1 [HD] |  |  |  | PERCENT XANTHINE OXIDASE INHIBITION (compound concentration 100 μM): 60% |
| O=C(OCC(F)(F)C(F)F)c1ccc(-c2nnn[nH]2)cc1 [GP] | 92 |  | 65 | PERCENT XANTHINE OXIDASE INHIBITION (compound concentration 0.01 μM): 9% |
| FC(F)(F)Oc1ccc(-c2nnn[nH]2)cc1 [FL] |  |  |  | PERCENT XANTHINE OXIDASE INHIBITION (compound concentration 10 μM): 14%; PERCENT XANTHINE OXIDASE INHIBITION (compound concentration 100 μM): 55% |
| COc1ccc(-c2nnn[nH]2)c2ccccc12 [HM] |  |  |  | PERCENT XANTHINE OXIDASE INHIBITION (compound concentration 100 μM): 27% |
